According to patent US4572895A, “Process for preparing an antibiotic complex by culturing actinomyces strain ATCC 39417” (priority 1985, dated 1986):
In brackets after ≈: the same amount, converted by molar mass.

Assays:
[1] = system: Staphylococcus aureus 209P; assay: MIC, serial two-fold agar dilution; type: cell-based; conditions: nutrient agar
[2] = system: Staphylococcus aureus Smith; assay: MIC, serial two-fold agar dilution; type: cell-based; conditions: nutrient agar
[3] = system: Bacillus subtilis PCI 219; assay: MIC, serial two-fold agar dilution; type: cell-based; conditions: PCI219, nutrient agar
[4] = system: Micrococcus luteus PCI 1001; assay: MIC, serial two-fold agar dilution; type: cell-based; conditions: PCI1001, nutrient agar
Micrococcus flavus D12 = assay: MIC, serial two-fold agar dilution; type: cell-based; conditions: nutrient agar
Escherichia coli NIHJ = assay: MIC, serial two-fold agar dilution; type: cell-based; conditions: nutrient agar
[5] = system: Klebsiella pneumoniae D11; assay: MIC, serial two-fold agar dilution; type: cell-based; conditions: nutrient agar
[6] = system: Pseudomonas aeruginosa D15; assay: MIC, serial two-fold agar dilution; type: cell-based; conditions: nutrient agar
[7] = system: Candida albicans IAM 4888; assay: MIC, serial two-fold agar dilution; type: cell-based; conditions: IAM4888, Sabouraud agar
[8] = system: Cryptococcus neoformans D49; assay: MIC, serial two-fold agar dilution; type: cell-based; conditions: Sabouraud agar
[9] = system: Aspergillus fumigatus IAM 2530; assay: MIC, serial two-fold agar dilution; type: cell-based; conditions: IAM2530, Sabouraud agar
[10] = system: Trichophyton mentagrophytes D155; assay: MIC, serial two-fold agar dilution; type: cell-based; conditions: Sabouraud agar
Bacteroides fragilis = assay: MIC, serial two-fold agar dilution; type: cell-based; conditions: GAM agar, anaerobe
Clostridium difficile = assay: MIC, serial two-fold agar dilution; type: cell-based; conditions: Clostridioides difficile; GAM agar, anaerobe
Clostridium perfringens = assay: microbe, parasite or virus in culture; type: cell-based
Propionibacterium acnes = assay: MIC, serial two-fold agar dilution; type: cell-based; conditions: Cutibacterium acnes; GAM agar, anaerobe
Staphylococcus aureus = assay: anti-staphylococcal activity (MIC comparison); type: cell-based; conditions: vs BBM-2478B or chartreusin
[11] = system: gram-negative bacteria and fungi; assay: antibacterial/antifungal activity (MIC), summary; type: cell-based
[12] = system: P388, L1210 and B16 tumors; assay: antitumor activity in mice, summary over P388, L1210 and B16; type: in vivo, BDF1 mice
[13] = acute toxicity, single intraperitoneal administration; conditions: mouse, in vivo; single ip, mice (ddY strain)
solubility = type: physicochemical
[14] = system: aerobic gram-positive bacteria and anaerobic bacteria; assay: antibacterial activity, summary; type: cell-based
Text: Nutrient agar medium was used for gram-positive and gram-negative bacteria, GAM agar medium for anaerobes and Sabouraud agar medium for fungi.

melanotic melanoma B16 = assay: antitumor activity, B16 melanoma in mice; conditions: qd 1→9
[15] = system: lymphocytic leukemia P388; assay: antitumor activity, P388 leukemia in mice; conditions: qd 1→9
lymphoid leukemia L1210 = assay: antitumor activity, L1210 leukemia in mice; conditions: qd 1→9

## CO[C@@H]1[C@@H](N)[C@@H](O[C@H]2[C@H](Oc3cccc4c(O)c5c(=O)oc6ccc(C)c7c(=O)oc(c34)c5c67)O[C@H](C)[C@H](O)[C@]2(C)O)O[C@H](C)[C@@H]1O [BBM-2478A]
[1]
  MIC: 1.6 µg/mL (≈ 2.45 µM)
[2]
  MIC: 0.8 µg/mL (≈ 1.22 µM)
[3]
  MIC: 0.8 µg/mL (≈ 1.22 µM)
[4]
  MIC: 0.8 µg/mL (≈ 1.22 µM)
Micrococcus flavus D12
  MIC: 0.8 µg/mL (≈ 1.22 µM)
Escherichia coli NIHJ
  MIC: 100 µg/mL (≈ 153 µM)
[5]
  MIC: 100 µg/mL (≈ 153 µM)
[6]
  MIC: 100 µg/mL (≈ 153 µM)
[7]
  MIC: > 100 µg/mL
[8]
  MIC: > 100 µg/mL
[9]
  MIC: > 100 µg/mL
[10]
  MIC: > 100 µg/mL
Bacteroides fragilis
  MIC: 12.5 µg/mL (≈ 19.1 µM)
Clostridium difficile
  MIC: 12.5 µg/mL (≈ 19.1 µM)
Clostridium perfringens
  MIC: 6.3 µg/mL (≈ 9.64 µM)
Propionibacterium acnes
  MIC: 6.3 µg/mL (≈ 9.64 µM)
Staphylococcus aureus
  anti-staphylococcal activity relative to BBM-2478B or chartreusin: two to four times higher
[11]
  activity against gram-negative bacteria and fungi: inactive
[12]; all tumors tested, ip, qd 1→9
  T/C values compared with chartreusin: superior to those of chartreusin
[12]; experimental mouse tumors
  antitumor activity: significant antitumor activity
[13]
  LD50: 38 mg/kg
solubility; acidic water
  solubility in acidic water: readily soluble
solubility; dimethyl sulfoxide, dimethylformamide, dioxane
  solubility in dimethyl sulfoxide, dimethylformamide, dioxane: readily soluble
solubility; methanol, ethanol, chloroform
  solubility in methanol, ethanol and chloroform: slightly soluble
solubility; other organic solvents
  solubility in other organic solvents: insoluble
[14]
  antibacterial activity: potent antibacterial activity
Melanotic melanoma B16; 0.03 mg/kg/day ip
  Average wt. change on day 5: +2.0 g
  MST: 16.0 days
  Survivors on day 5: 6/6
  Survivors on day 45: 0/6
  T/C: 114%
Melanotic melanoma B16; 0.1 mg/kg/day ip
  Average wt. change on day 5: +2.5 g
  MST: 18.5 days
  Survivors on day 5: 6/6
  Survivors on day 45: 0/6
Melanotic melanoma B16; 0.3 mg/kg/day ip
  Average wt. change on day 5: +2.5 g
  MST: 25.5 days
  Survivors on day 5: 6/6
  Survivors on day 45: 0/6
Melanotic melanoma B16; 1 mg/kg/day ip
  Average wt. change on day 5: +2.2 g
  MST: 34.5 days
  Survivors on day 5: 6/6
  Survivors on day 45: 0/6
Melanotic melanoma B16; 3 mg/kg/day ip
  Average wt. change on day 5: +1.5 g
  MST: 41.5 days
  Survivors on day 5: 6/6
  Survivors on day 45: 0/6
[15]; 0.01 mg/kg/day ip
  Average wt. change on day 5: +2.0 g
  MST: 10.0 days
  Survivors on day 5: 6/6
  Survivors on day 45: 0/6
  T/C: 111%
[15]; 0.03 mg/kg/day ip
  Average wt. change on day 5: +2.3 g
  MST: 10.0 days
  Survivors on day 5: 6/6
  Survivors on day 45: 0/6
[15]; 0.1 mg/kg/day ip
  Average wt. change on day 5: +1.2 g
  MST: 14.5 days
  Survivors on day 5: 6/6
  Survivors on day 45: 0/6
[15]; 0.3 mg/kg/day ip
  Average wt. change on day 5: +1.8 g
  MST: 17.0 days
  Survivors on day 5: 6/6
  Survivors on day 45: 0/6
[15]; 1 mg/kg/day ip
  Average wt. change on day 5: +0.8 g
  MST: 21.5 days
  Survivors on day 5: 6/6
  Survivors on day 45: 0/6
[15]; 3 mg/kg/day ip
  Average wt. change on day 5: -1.0 g
  MST: 20.0 days
  Survivors on day 5: 5/5
  Survivors on day 45: 0/5
Lymphoid leukemia L1210; 0.01 mg/kg/day ip
  Average wt. change on day 5: +3.2 g
  MST: 8.0 days
  Survivors on day 5: 6/6
  Survivors on day 45: 0/6
  T/C: 100%
Lymphoid leukemia L1210; 0.03 mg/kg/day ip
  Average wt. change on day 5: +2.9 g
  MST: 8.0 days
  Survivors on day 5: 6/6
  Survivors on day 45: 0/6
  T/C: 100%
Lymphoid leukemia L1210; 0.1 mg/kg/day ip
  Average wt. change on day 5: +2.6 g
  MST: 8.0 days
  Survivors on day 5: 6/6
  Survivors on day 45: 0/6
  T/C: 100%
Lymphoid leukemia L1210; 0.3 mg/kg/day ip
  Average wt. change on day 5: +1.3 g
  MST: 10.5 days
  Survivors on day 5: 6/6
  Survivors on day 45: 0/6
Lymphoid leukemia L1210; 1 mg/kg/day ip
  Average wt. change on day 5: -0.8 g
  MST: 11.0 days
  Survivors on day 5: 6/6
  Survivors on day 45: 0/6
Lymphoid leukemia L1210; 3 mg/kg/day ip
  Average wt. change on day 5: -0.1 g
  MST: 12.0 days
  Survivors on day 5: 6/6
  Survivors on day 45: 0/6
